Measured values taken from patent US7022739B2, “Substituted 1-aminobutan-3-ol compounds” (Gruenenthal GmbH, priority 2000, dated 2006).

Assays:
gabapentin binding site = test: Gabapentin binding assay (displacement of gabapentin from its binding site)
Description: Gabapentin is used in the binding assay in order to check the binding and affinities of the selected compounds. The affinity of the compounds according to the invention is measured via the displacement of gabapentin from its binding site.

[1] = tested on: phenylquinone-induced writhing; test: Phenylquinone-induced writhing test in mice; type: in vivo; conditions: male NMRI mice, groups of 10

SMILES | % Inhibition Gabapentin, 10 μmole (gabapentin binding site) | Reacting Animals/Control Animals (Writhing) ([1]; 10 mg/kg, iv) | also measured
COc1cccc(C2CCCC(CN(C)C)C2(O)c2ccc(Cl)cc2)c1 (stereo not shown) [Example 45, 1-(4-chlorophenyl)-2-dimethylaminomethyl-6-(3-methoxyphenyl)-cyclohexanol] | 58% | – | –
COc1cccc(C2CCCC(CN(C)C)C2(O)c2cccc(Cl)c2)c1 (stereo not shown) [Example 75, 1-(3-chlorophenyl)-2-dimethylaminomethyl-6-(3-methoxyphenyl)-cyclohexanol] | 54% | – | –
COc1cccc(C2CCCC(CN(C)C)C2(O)c2ccc(C)cc2)c1 (stereo not shown) [Example 76, 2-dimethylaminomethyl-6-(3-methoxyphenyl)-1-p-tolylcyclohexanol] | 53% | – | –
CN(C)CC1CCCC(c2cccc(O)c2)C1(O)c1ccc(F)cc1 (stereo not shown) [Example 81, 3-[3-dimethylaminomethyl-2-(4-fluorophenyl)-2-hydroxycyclohexyl]-phenol] | 48% | – | –
CN(C)CC1CCCC(c2cccc(O)c2)C1(O)c1ccccc1 (stereo not shown) [Example 82, 3-(3-dimethylaminomethyl-2-hydroxy-2-phenylcyclohexyl)-phenol] | 55% | – | –
COc1cccc(C2CCCC(CN(C)C)C2(O)c2ccc(Cl)cc2)c1 (stereo not shown) [Example 85, 1-(4-chlorophenyl)-2-dimethylaminomethyl-6-(3-methoxyphenyl)-cyclohexanol] | – | – | Reacting Animals/Control Animals (Writhing) ([1]; 46.4 mg/kg, iv): 10/10 (46.4 mg/kg; iv)
COc1cccc(C2(O)C(CN(C)C)CCCC2C2CCCCC2)c1 (stereo not shown) [Example 86, 3-dimethylaminomethyl-2-(3-methoxyphenyl)-bicyclohexyl-2-ol] | – | – | Reacting Animals/Control Animals (Writhing) ([1]; 21.5 mg/kg, po): 3/10 (21.5 mg/kg; po)
CN(C)CC1CCCC(Cc2ccccc2)C1(O)c1ccc(C(F)(F)F)cc1 (stereo not shown) [Example 87, 2-benzyl-6-dimethylaminomethyl-1-(4-trifluoromethylphenyl)-cyclohexanol] | – | 2/10 (10 mg/kg; iv) | –
CN(C)CC1CCCC(Cc2ccccc2)C1(O)c1cccc(O)c1 (stereo not shown) [Example 88, 3-(2-benzyl-6-dimethylaminomethyl-1-hydroxycyclohexyl)-phenol] | – | 2/10 (10 mg/kg; iv) | –
CN(C)CC1CCCC(C(C)(C)C)C1(O)c1cccc(O)c1 (stereo not shown) [Example 89, 3-(2-tert.-butyl-6-dimethylaminomethyl-1-hydroxycyclohexyl)-phenol] | – | 3/10 (10 mg/kg; iv) | –
